According to patent publication US6737383B1, “Herbicidal oxadiazolidines” (priority 1999, dated 2004):

How the values were obtained:
surinam grass = assay: Test B pre/postemergence surinam grass; assay type: in vivo, Brachiaria decumbens
In short: (§1)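 Herbicidal effect was estimated by eye on a ten-point control scale after plants spent twelve to sixteen days in a greenhouse following soil or foliar treatment. Foliar sprays targeted plants at one to four leaves; all doses were formulated in a non-phytotoxic solvent with surfactant.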

blackgrass [1] = assay: Test B pre/postemergence blackgrass; assay type: in vivo, Alopecurus myosuroides
In short: as §1

smallflower flatsedge = assay: Test B flood test smallflower flatsedge; assay type: in vivo, Cyperus difformis; details: for Plant response rating, S. Flatsedge: Postemergence (flood test)
In short: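 Plants were grown to the 2-leaf stage before treatment with test chemical, then held in a greenhouse for twelve to sixteen days. Injury was visually rated against untreated controls on a 0–10 scale, where 0 is no effect and 10 is complete control.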

bermuda-grass = assay: Test D bermudagrass; assay type: in vivo, Cynodon dactylon; details: Preemergence, 0 to 100 scale
In short: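 Scoring used a 0–100 visual injury scale, with 0 meaning no effect and 100 complete control, assessed 14–21 days after application alongside untreated pots. Preemergence treatments went onto sandy loam surfaces of separately potted seeds within a day of sowing.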

bedstraw = assay: Test B pre/postemergence bedstraw; assay type: in vivo, Galium aparine
In short: as §1

winter wheat [2] = assay: Test E winter wheat; assay type: in vivo, Triticum aestivum; details: Postemergence
In short: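 Visually scored herbicidal effect relative to untreated plants, taken ~21 to 28 days post-application; compound in solvent with surfactant; postemergence sprays at the 1- to 4-leaf stage.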

wild oat = assay: Test E wild oat; assay type: in vivo, Avena fatua; details: Preemergence
Italian ryegrass = assay: Test E Italian ryegrass; assay type: in vivo, Lolium multiflorum; details: Preemergence
winter wheat [3] = assay: Test E winter wheat; assay type: in vivo, Triticum aestivum; details: Preemergence
winter barley = assay: Test E winter barley; assay type: in vivo, Hordeum vulgare; details: Preemergence
blackgrass [4] = assay: Test E blackgrass; assay type: in vivo, Alopecurus myosuroides; details: Preemergence
green foxtail = assay: Test E green foxtail; assay type: in vivo, Setaria viridis; details: Preemergence
[5] = Postemergence, Rate 125 g/ha, scale of 0 to 10 where 0 is no effect and 10 is complete control
[6] = Preemergence, Rate 62 g/ha, scale 0 to 10 (0 no effect, 10 complete control)
[7] = Preemergence, Rate 125 g/ha, 0 is no effect, 10 is complete control
[8] = Preemergence, Rate 250 g/ha, scale 0 to 10, 0 is no effect, 10 is complete control
[9] = Preemergence, Rate 500 g/ha, scale 0 to 10 (0 no effect, 10 complete control)
[10] = Rate 62 g/ha, Postemergence, scale of 0 to 10 where 0 is no effect and 10 is complete control
[11] = Rate 250 g/ha, Postemergence, scale 0 to 10, 0 is no effect, 10 is complete control
[12] = Postemergence (flood test species), Rate 125 g/ha, scale of 0 to 10 where 0 is no effect and 10 is complete control
[13] = Rate 250 g/ha, scale 0 to 10, 0 is no effect, 10 is complete control
[14] = Rate 64 g/ha, 0 no injury, 100 complete control
[15] = Postemergence, Rate 62 g/ha, scale 0 to 10, 0 is no effect, 10 is complete control
[16] = Postemergence, Rate 250 g/ha, scale 0 to 10, 0 no effect, 10 complete control
[17] = Preemergence, Rate 31 g/ha, visual rating, scale 0 to 10 (0 no effect, 10 complete control)
[18] = Preemergence, Rate 62 g/ha, scale 0 to 10, 0 is no effect, 10 is complete control
[19] = Preemergence, Rate 125 g/ha, scale 0 to 10 (0 no effect, 10 complete control)
[20] = Preemergence, Rate 250 g/ha, scale of 0 to 10 where 0 is no effect and 10 is complete control
[21] = Rate 31 g/ha, Postemergence, scale 0 to 10
[22] = Rate 125 g/ha, Postemergence, scale 0 to 10, 0 no effect, 10 complete control
[23] = Rate 125 g/ha, 0 to 100 scale (0 no effect, 100 complete control)
[24] = Rate 500 g/ha, 0 to 100 scale where 0 is no effect and 100 is complete control

C=C(C)Cn1c(=O)on(C(=O)N(c2ccc(F)cc2)C(C)C)c1=O [Compound 139]
B. signalgrass plant response rating (surinam grass; [5]): 2 | B. signalgrass plant response rating (surinam grass; [6]): 0 | B. signalgrass plant response rating (0 to 10 scale) (surinam grass; [7]): 2 | B. signalgrass plant response rating (surinam grass; [8]): 8 | B. signalgrass plant response rating (surinam grass; [9]): 9 | B. signalgrass plant response rating (surinam grass; [10]): 2 | Plant response rating, B. signalgrass (surinam grass; [11]): 6 | B. signalgrass plant response rating (surinam grass; Rate 500 g/ha, Postemergence, scale of 0 to 10 where 0 is no effect and 10 is complete control): 7 | Blackgrass plant response rating (blackgrass [1]; [5]): 2 | Blackgrass plant response rating (blackgrass [1]; [6]): 4 | Blackgrass plant response rating (0 to 10 scale) (blackgrass [1]; [7]): 6 | Blackgrass plant response rating (blackgrass [1]; [8]): 9 | Blackgrass plant response rating (blackgrass [1]; [9]): 10 | Blackgrass plant response rating (blackgrass [1]; [10]): 2 | Plant response rating, Blackgrass (blackgrass [1]; [11]): 7 | Blackgrass plant response rating (blackgrass [1]; Rate 500 g/ha, Postemergence, scale 0 to 10): 8 | S. Flatsedge plant response rating (smallflower flatsedge; [12]): 0 | S. Flatsedge plant response rating (smallflower flatsedge; Pre-emergence, Rate 1000 g/ha, scale 0 to 10 (0 no effect, 10 complete control)): 0 | S. Flatsedge plant response rating (smallflower flatsedge; Rate 62 g/ha, Postemergence section, flood test species, scale of 0 to 10 where 0 is no effect and 10 is complete control): 0 | Plant response rating, S. Flatsedge (smallflower flatsedge; [13]): 0 | S. Flatsedge plant response rating (smallflower flatsedge; Rate 250 g/ha, Pre-emergence, flood-test species, scale 0 to 10, 0 is no effect, 10 is complete control): 0 | S. Flatsedge plant response rating (smallflower flatsedge; Rate 500 g/ha, Pre-emergence, flood test species, scale 0 to 10 (0 no effect, 10 complete control)): 0 | S. Flatsedge plant response rating (smallflower flatsedge; Rate 2000 g/ha, Pre-emergence (as headed), scale 0 to 10): 0 | Plant response rating, Bermudagrass (bermuda-grass; [14]): 98 | Bedstraw plant response rating (bedstraw; [5]): 2 | Bedstraw plant response rating (bedstraw; [6]): 0 | Bedstraw plant response rating (0 to 10 scale) (bedstraw; [7]): 0 | Bedstraw plant response rating (bedstraw; [8]): 2 | Bedstraw plant response rating (bedstraw; [9]): 9 | Plant response rating, Bedstraw (bedstraw; [11]): 5 | Bedstraw plant response rating (bedstraw; Rate 500 g/ha, Postemergence, scale 0 to 10, 0 no effect, 10 complete control): 5

Cc1cccc(C)c1-n1c(=O)on(C(=O)N(c2ccc(F)cc2F)C(C)C)c1=O [Compound 28]
B. signalgrass plant response rating (surinam grass; [15]): 0 | B. signalgrass plant response rating (surinam grass; [16]): 0 | B. signalgrass plant response rating (surinam grass; [17]): 0 | Plant response rating, B. signalgrass (surinam grass; [18]): 0 | Plant response rating, B. signalgrass (surinam grass; [19]): 0 | Plant response rating, B. signalgrass (surinam grass; [20]): 0 | B. signalgrass plant response rating (surinam grass; [21]): 0 | B. signalgrass plant response rating (surinam grass; [22]): 0 | Blackgrass plant response rating (blackgrass [1]; [15]): 0 | Blackgrass plant response rating (blackgrass [1]; [16]): 6 | Blackgrass plant response rating (blackgrass [1]; [17]): 0 | Plant response rating, Blackgrass (blackgrass [1]; [18]): 0 | Plant response rating, Blackgrass (blackgrass [1]; [19]): 0 | Plant response rating, Blackgrass (blackgrass [1]; [20]): 3 | Blackgrass plant response rating (blackgrass [1]; [21]): 0 | Blackgrass plant response rating (blackgrass [1]; [22]): 2 | S. Flatsedge plant response rating (smallflower flatsedge; [15]): 0 | S. Flatsedge plant response rating (smallflower flatsedge; Rate 125 g/ha, Postemergence section (flood test species), scale 0 to 10, 0 no effect, 10 complete control): 0 | S. Flatsedge plant response rating (smallflower flatsedge; flood test, listed under Postemergence, Rate 250 g/ha, scale 0 to 10, 0 no effect, 10 complete control): 0 | Plant response rating, Bermudagrass (bermuda-grass; Rate 32 g/ha, 0 no injury, 100 complete control): 85 | Plant response rating, Bermudagrass (bermuda-grass; [14]): 100 | Plant response rating, Bermudagrass (bermuda-grass; Rate 125 g/ha, 0 no injury, 100 complete control): 100 | Plant response rating, Bermudagrass (bermuda-grass; Rate 250 g/ha): 100 | Bedstraw plant response rating (bedstraw; [15]): 3 | Bedstraw plant response rating (bedstraw; [16]): 8 | Bedstraw plant response rating (bedstraw; [17]): 0 | Plant response rating, Bedstraw (bedstraw; [18]): 0 | Plant response rating, Bedstraw (bedstraw; [19]): 0 | Plant response rating, Bedstraw (bedstraw; [20]): 1 | Bedstraw plant response rating (bedstraw; [21]): 3

CC(C)N(C(=O)n1oc(=O)n(-c2cnn(C)c2)c1=O)c1ccc(F)cc1 [Compound 98]
B. signalgrass plant response rating (surinam grass; [15]): 0 | B. signalgrass plant response rating (surinam grass; [16]): 0 | B. signalgrass plant response rating (surinam grass; [17]): 0 | B. signalgrass plant response rating (surinam grass; [6]): 0 | Plant response rating, B. signalgrass (surinam grass; [19]): 0 | Plant response rating, B. signalgrass (surinam grass; [20]): 0 | B. signalgrass plant response rating (surinam grass; [21]): 0 | B. signalgrass plant response rating (surinam grass; [22]): 0 | Plant response rating, Wheat (winter) (winter wheat [2]; Rate 125 g/ha, 0 to 100 scale): 30 | Plant response rating, Wheat (winter) (winter wheat [2]; Rate 250 g/ha, 0 to 100 scale (0 no effect, 100 complete control)): 50 | Plant response rating, Wheat (winter) (winter wheat [2]; Rate 500 g/ha, 0 to 100 scale, 0 no effect, 100 complete control): 55 | Blackgrass plant response rating (blackgrass [1]; [15]): 0 | Blackgrass plant response rating (blackgrass [1]; [5]): 0 | Blackgrass plant response rating (blackgrass [1]; [16]): 0 | Blackgrass plant response rating (blackgrass [1]; [17]): 0 | Blackgrass plant response rating (blackgrass [1]; [6]): 2 | Plant response rating, Blackgrass (blackgrass [1]; [19]): 6 | Plant response rating, Blackgrass (blackgrass [1]; [20]): 8 | Blackgrass plant response rating (blackgrass [1]; [21]): 0 | S. Flatsedge plant response rating (smallflower flatsedge; [12]): 8 | S. Flatsedge plant response rating (smallflower flatsedge; [15]): 0 | Plant response rating, S. Flatsedge (smallflower flatsedge; [13]): 8 | Plant response rating, Wild oat (wild oat; [23]): 50 | Plant response rating, Wild oat (wild oat; [24]): 50 | Plant response rating, I. Ryegrass (Italian ryegrass; [23]): 50 | Plant response rating, I. Ryegrass (Italian ryegrass; Rate 250 g/ha, 0 to 100 scale): 50 | Plant response rating, I. Ryegrass (Italian ryegrass; [24]): 60 | Plant response rating, Wheat (winter) (winter wheat [3]; [23]): 30 | Plant response rating, Wheat (winter) (winter wheat [3]; Rate 250 g/ha, 0 to 100 scale): 40 | Plant response rating, Wheat (winter) (winter wheat [3]; [24]): 40 | Plant response rating, Barley (winter) (winter barley; [23]): 20 | Plant response rating, Barley (winter) (winter barley; Rate 250 g/ha, 0 to 100 scale): 10 | Plant response rating, Barley (winter) (winter barley; [24]): 30 | Plant response rating, Blackgrass (blackgrass [4]; [23]): 30 | Plant response rating, Blackgrass (blackgrass [4]; Rate 250 g/ha, 0 to 100 scale): 20 | Plant response rating, Blackgrass (blackgrass [4]; [24]): 55 | Plant response rating, Green foxtail (green foxtail; [23]): 60 | Plant response rating, Green foxtail (green foxtail; Rate 250 g/ha, 0 to 100 scale): 60 | Plant response rating, Green foxtail (green foxtail; [24]): 65 | Bedstraw plant response rating (bedstraw; [15]): 0 | Bedstraw plant response rating (bedstraw; [17]): 0 | Bedstraw plant response rating (bedstraw; [6]): 0 | Plant response rating, Bedstraw (bedstraw; [19]): 0 | Plant response rating, Bedstraw (bedstraw; [20]): 0 | Bedstraw plant response rating (bedstraw; [21]): 0
